Measurements taken from ChEMBL document CHEMBL1201862, “PubChem BioAssay data set” (2004).
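Tested at 5 concentrations; 48 h exposure; 96-well plates; endpoints linearly interpolated, else capped at highest concentration. GI50 = concentration required for 50% inhibition of growth.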 Active and inactive are the calls of the source. Rule as the data show it: active = GI50 up to about 1.1 µM and inactive = higher.

What was measured:
Assay in all cases: DTP human tumour cell line panel, 48 h
K562 = system: K562
SK-OV-3 = system: SK-OV-3
CCRF-CEM = system: CCRF-CEM
OVCAR-3 = system: OVCAR-3
HOP-18 = system: HOP-18
NCI-H226 = system: NCI-H226
CAKI-1 = system: CAKI-1
RXF 393 = system: RXF 393
LOX IMVI = system: LOX IMVI
HCT-116 = system: HCT-116
DLD-1 = system: DLD-1
UO-31 = system: UO-31
HCC 2998 = system: HCC 2998
RXF 631 = system: RXF 631
A549 = system: A549
HCT-15 = system: HCT-15
UACC-62 = system: UACC-62
SNB-78 = system: SNB-78
OVCAR-4 = system: OVCAR-4
RPMI-8226 = system: RPMI-8226
SNB-75 = system: SNB-75
DMS-273 = system: DMS-273
Malme-3M = system: Malme-3M
LXFL 529 = system: LXFL 529
SNB-19 = system: SNB-19
COLO 205 = system: COLO 205
DMS-114 = system: DMS-114
M14 = system: M14
SR = system: SR
UACC-257 = system: UACC-257
SF-268 = system: SF-268
HL-60 = system: HL-60
SK-MEL-28 = system: SK-MEL-28
SK-MEL-5 = system: SK-MEL-5
MOLT-4 = system: MOLT-4
786-0 = system: 786-0
HT-29 = system: HT-29
M19-MEL = system: M19-MEL
SF-295 = system: SF-295
NCI-H23 = system: NCI-H23
SN12C = system: SN12C
KM-20L2 = system: KM-20L2
EKVX = system: EKVX
SF-539 = system: SF-539
OVCAR-8 = system: OVCAR-8
SW-620 = system: SW-620
ACHN = system: ACHN
A498 = system: A498
U-251 = system: U-251
HOP-92 = system: HOP-92
XF498 = system: XF498
IGROV-1 = system: IGROV-1
NCI-H522 = system: NCI-H522
SK-MEL-2 = system: SK-MEL-2
TK-10 = system: TK-10
HOP-62 = system: HOP-62
OVCAR-5 = system: OVCAR-5
NCI-H460 = system: NCI-H460
KM12 = system: KM12

For `C/C(=N/O)c1sc(-c2nc(C)c(/C(C)=N\O)s2)nc1C`, the GI50 (K562) was > 100 µM (inactive), the GI50 (SK-OV-3) was > 100 µM (inactive) and the GI50 (CCRF-CEM) was > 100 µM (inactive). The GI50 (OVCAR-3) was > 100 µM (inactive), the GI50 (HOP-18) was > 100 µM (inactive) and the GI50 (NCI-H226) was > 100 µM (inactive). For the same compound, the GI50 (CAKI-1) was > 100 µM (inactive), the GI50 (RXF 393) was > 100 µM (inactive) and the GI50 (LOX IMVI) was > 100 µM (inactive). For the same compound, the GI50 (HCT-116) was > 100 µM (inactive), the GI50 (DLD-1) was > 100 µM (inactive) and the GI50 (UO-31) was > 100 µM (inactive). The GI50 (HCC 2998) was > 100 µM (inactive), the GI50 (RXF 631) was > 100 µM (inactive) and the GI50 (A549) was > 100 µM (inactive). For the same compound, the GI50 (HCT-15) was over 100 µM, the GI50 (UACC-62) was > 100 µM (inactive) and the GI50 (SNB-78) was > 100 µM (inactive). The GI50 (OVCAR-4) was > 100 µM (inactive), the GI50 (RPMI-8226) was > 100 µM (inactive) and the GI50 (SNB-75) was 31.3 µM (inactive). For the same compound, the GI50 (DMS-273) was > 100 µM (inactive), the GI50 (Malme-3M) was > 100 µM (inactive) and the GI50 (LXFL 529) was > 100 µM (inactive). For the same compound, the GI50 (SNB-19) was > 100 µM (inactive), the GI50 (COLO 205) was > 100 µM (inactive) and the GI50 (DMS-114) was > 100 µM (inactive). For the same compound, the GI50 (M14) was > 100 µM (inactive), the GI50 (SR) was > 100 µM (inactive) and the GI50 (UACC-257) was > 100 µM (inactive). The GI50 (SF-268) was > 100 µM (inactive), the GI50 (HL-60) was > 100 µM (inactive) and the GI50 (SK-MEL-28) was > 100 µM (inactive). For the same compound, the GI50 (SK-MEL-5) was > 100 µM (inactive), the GI50 (MOLT-4) was > 100 µM (inactive) and the GI50 (786-0) was > 100 µM (inactive). For the same compound, the GI50 (HT-29) was > 100 µM (inactive), the GI50 (M19-MEL) was > 100 µM (inactive) and the GI50 (SF-295) was > 100 µM (inactive). For the same compound, the GI50 (NCI-H23) was > 100 µM (inactive), the GI50 (SN12C) was > 100 µM (inactive) and the GI50 (KM-20L2) was > 100 µM (inactive). For the same compound, the GI50 (EKVX) was > 100 µM (inactive), the GI50 (SF-539) was > 100 µM (inactive) and the GI50 (OVCAR-8) was > 100 µM (inactive). For the same compound, the GI50 (SW-620) was > 100 µM (inactive), the GI50 (ACHN) was > 100 µM (inactive) and the GI50 (A498) was > 100 µM (inactive). The GI50 (U-251) was > 100 µM (inactive), the GI50 (HOP-92) was > 100 µM (inactive) and the GI50 (XF498) was > 100 µM (inactive). For the same compound, the GI50 (IGROV-1) was > 100 µM (inactive).
With `C/C(=N/NC(=O)c1ccccc1O)c1ccc(/C(C)=N\NC(=O)c2ccccc2O)c2nc3cc(C)c(C)cc3nc12` the GI50 (K562) was > 100 µM (inactive), the GI50 (SK-OV-3) was > 100 µM (inactive) and the GI50 (CCRF-CEM) was > 100 µM (inactive). The GI50 (OVCAR-3) was > 100 µM (inactive), the GI50 (HOP-18) was 44.2 µM (inactive) and the GI50 (NCI-H226) was > 100 µM (inactive). For the same compound, the GI50 (RXF 393) was > 100 µM (inactive), the GI50 (LOX IMVI) was > 100 µM (inactive) and the GI50 (HCT-116) was > 100 µM (inactive). The GI50 (DLD-1) was > 100 µM (inactive), the GI50 (UO-31) was > 100 µM (inactive) and the GI50 (HCC 2998) was > 100 µM (inactive). For the same compound, the GI50 (RXF 631) was > 100 µM (inactive), the GI50 (A549) was > 100 µM (inactive) and the GI50 (NCI-H522) was > 100 µM (inactive). The GI50 (HCT-15) was over 100 µM, the GI50 (UACC-62) was > 100 µM (inactive) and the GI50 (SNB-78) was > 100 µM (inactive). For the same compound, the GI50 (SK-MEL-2) was > 100 µM (inactive), the GI50 (OVCAR-4) was > 100 µM (inactive) and the GI50 (TK-10) was > 100 µM (inactive). The GI50 (SNB-75) was 38.7 µM (inactive), the GI50 (HOP-62) was > 100 µM (inactive) and the GI50 (DMS-273) was > 100 µM (inactive). For the same compound, the GI50 (Malme-3M) was > 100 µM (inactive), the GI50 (LXFL 529) was > 100 µM (inactive) and the GI50 (SNB-19) was > 100 µM (inactive). The GI50 (COLO 205) was > 100 µM (inactive), the GI50 (DMS-114) was > 100 µM (inactive) and the GI50 (M14) was > 100 µM (inactive). The GI50 (UACC-257) was > 100 µM (inactive), the GI50 (SF-268) was > 100 µM (inactive) and the GI50 (SK-MEL-28) was > 100 µM (inactive). For the same compound, the GI50 (SK-MEL-5) was > 100 µM (inactive), the GI50 (MOLT-4) was > 100 µM (inactive) and the GI50 (786-0) was > 100 µM (inactive). The GI50 (HT-29) was > 100 µM (inactive), the GI50 (OVCAR-5) was > 100 µM (inactive) and the GI50 (M19-MEL) was > 100 µM (inactive). The GI50 (SF-295) was > 100 µM (inactive), the GI50 (NCI-H23) was > 100 µM (inactive) and the GI50 (SN12C) was > 100 µM (inactive). The GI50 (NCI-H460) was > 100 µM (inactive), the GI50 (KM-20L2) was > 100 µM (inactive) and the GI50 (EKVX) was > 100 µM (inactive). For the same compound, the GI50 (SF-539) was > 100 µM (inactive), the GI50 (KM12) was > 100 µM (inactive) and the GI50 (OVCAR-8) was > 100 µM (inactive). The GI50 (SW-620) was > 100 µM (inactive), the GI50 (ACHN) was > 100 µM (inactive) and the GI50 (A498) was > 100 µM (inactive). The GI50 (U-251) was > 100 µM (inactive), the GI50 (HOP-92) was 54.7 µM (inactive) and the GI50 (XF498) was > 100 µM (inactive). For the same compound, the GI50 (IGROV-1) was > 100 µM (inactive).
`COC(=O)C1C=NNC1C(=O)OC` (configuration not stated) was tested, and the GI50 (K562) was > 100 µM (inactive), the GI50 (SK-OV-3) was > 100 µM (inactive) and the GI50 (CCRF-CEM) was > 100 µM (inactive). For the same compound, the GI50 (OVCAR-3) was > 100 µM (inactive), the GI50 (HOP-18) was > 100 µM (inactive) and the GI50 (NCI-H226) was > 100 µM (inactive). For the same compound, the GI50 (CAKI-1) was > 100 µM (inactive), the GI50 (RXF 393) was > 100 µM (inactive) and the GI50 (LOX IMVI) was > 100 µM (inactive). The GI50 (HCT-116) was > 100 µM (inactive), the GI50 (UO-31) was > 100 µM (inactive) and the GI50 (HCC 2998) was > 100 µM (inactive). The GI50 (RXF 631) was > 100 µM (inactive), the GI50 (A549) was > 100 µM (inactive) and the GI50 (NCI-H522) was > 100 µM (inactive). For the same compound, the GI50 (HCT-15) was over 100 µM, the GI50 (UACC-62) was > 100 µM (inactive) and the GI50 (SNB-78) was > 100 µM (inactive). For the same compound, the GI50 (SK-MEL-2) was > 100 µM (inactive), the GI50 (OVCAR-4) was > 100 µM (inactive) and the GI50 (TK-10) was > 100 µM (inactive). For the same compound, the GI50 (RPMI-8226) was > 100 µM (inactive), the GI50 (SNB-75) was > 100 µM (inactive) and the GI50 (HOP-62) was > 100 µM (inactive). The GI50 (DMS-273) was > 100 µM (inactive), the GI50 (Malme-3M) was > 100 µM (inactive) and the GI50 (LXFL 529) was > 100 µM (inactive). The GI50 (SNB-19) was 57.3 µM (inactive), the GI50 (COLO 205) was > 100 µM (inactive) and the GI50 (DMS-114) was > 100 µM (inactive). The GI50 (M14) was > 100 µM (inactive), the GI50 (UACC-257) was > 100 µM (inactive) and the GI50 (SF-268) was > 100 µM (inactive). The GI50 (HL-60) was > 100 µM (inactive), the GI50 (SK-MEL-5) was > 100 µM (inactive) and the GI50 (MOLT-4) was > 100 µM (inactive). The GI50 (786-0) was > 100 µM (inactive), the GI50 (HT-29) was > 100 µM (inactive) and the GI50 (OVCAR-5) was > 100 µM (inactive). For the same compound, the GI50 (M19-MEL) was > 100 µM (inactive), the GI50 (SF-295) was > 100 µM (inactive) and the GI50 (NCI-H23) was > 100 µM (inactive). For the same compound, the GI50 (SN12C) was > 100 µM (inactive), the GI50 (NCI-H460) was > 100 µM (inactive) and the GI50 (KM-20L2) was > 100 µM (inactive). For the same compound, the GI50 (EKVX) was > 100 µM (inactive), the GI50 (SF-539) was > 100 µM (inactive) and the GI50 (KM12) was > 100 µM (inactive). The GI50 (OVCAR-8) was > 100 µM (inactive), the GI50 (SW-620) was > 100 µM (inactive) and the GI50 (ACHN) was > 100 µM (inactive). The GI50 (A498) was > 100 µM (inactive), the GI50 (U-251) was > 100 µM (inactive) and the GI50 (XF498) was > 100 µM (inactive). The GI50 (IGROV-1) was > 100 µM (inactive).
